Assay results: patent USRE34918E, “Azaazulene compounds which are useful as antiallergic and antiinflammatory agents” (Kaken Pharmaceutical Co., Ltd., priority 1988, dated 1995)

Columns and labels:
[1] = test system: histamine release from rat mast cell; experiment: Inhibitory activity against histamine release from rat mast cell; assay type: cell-based; details: 10 μg/ml, read-out: Inhibitory rate against histamine release
[2] = test system: PCA (homologous passive cutaneous anaphylaxis) in rat; experiment: Inhibitory activity against PCA in rat; assay type: in vivo, rat (male Slc: Wistar); details: Rattus norvegicus; 5 mg/kg oral, 1 hour before antigen challenge; read-out: Inhibition rate against PCA
Protocol: An anti-dinitrophenylated-ovalbumin (hereinafter referred to as "anti-DNP-OVA") rat antiserum having 800 of PCA titer in homologous passive cutaneous anaphylaxis reaction in rats for 48 hours, was diluted 200 times with physiological saline, and diluted antiserum was injected intradermally into back of groups of 5 male Slc: Wistar rats weighing 130-150 g in a volume of 50 μl/site to be passively sensitized. After 48 hours, 0.6 ml of 1% (w/v) Evans blue solution containing 1.5 mg of antigen DNP-OVA was administered intravenously into the tail. Thirty minutes later, the rats were bled to death and skin of the rats was removed. According to the method of Katayama et al [Microbiol. […] The test compound was suspended in 0.5% (w/v) aqueous solution of carboxymethylcellulose (hereinafter referred to as "CMC"), the suspension was administered orally in a ratio of 5 mg/kg 1 hour before challenging an antigen.
Inhibition rate against PCA was calculated according to the following equation. [formula] M: Amount of leaked pigment in antibody-sensitized site under administration of CMC without the test compound
S: Amount of leaked pigment in antibody-sensitized site under administration of the test compound in CMC
B: Amount of leaked pigment in antibody-nonsensitized site

5-lipoxygenase = biological target: T1, 5-lipoxygenase (Cavia porcellus, UniProt A0A286X958); experiment: 5-lipoxygenase inhibiting activity in guinea pig; assay type: biochemical; details: read-out: Inhibition rate against 5-lipoxygenase activity
T1 construct: 5-lipoxygenase was prepared with polymorphonuclear leukocyte obtained from peritoneal cavity; endogenous in cells; host or cells: guinea pig peritoneal polymorphonuclear leukocytes (casein-elicited)
T1 sequence (A0A286X958 1-674): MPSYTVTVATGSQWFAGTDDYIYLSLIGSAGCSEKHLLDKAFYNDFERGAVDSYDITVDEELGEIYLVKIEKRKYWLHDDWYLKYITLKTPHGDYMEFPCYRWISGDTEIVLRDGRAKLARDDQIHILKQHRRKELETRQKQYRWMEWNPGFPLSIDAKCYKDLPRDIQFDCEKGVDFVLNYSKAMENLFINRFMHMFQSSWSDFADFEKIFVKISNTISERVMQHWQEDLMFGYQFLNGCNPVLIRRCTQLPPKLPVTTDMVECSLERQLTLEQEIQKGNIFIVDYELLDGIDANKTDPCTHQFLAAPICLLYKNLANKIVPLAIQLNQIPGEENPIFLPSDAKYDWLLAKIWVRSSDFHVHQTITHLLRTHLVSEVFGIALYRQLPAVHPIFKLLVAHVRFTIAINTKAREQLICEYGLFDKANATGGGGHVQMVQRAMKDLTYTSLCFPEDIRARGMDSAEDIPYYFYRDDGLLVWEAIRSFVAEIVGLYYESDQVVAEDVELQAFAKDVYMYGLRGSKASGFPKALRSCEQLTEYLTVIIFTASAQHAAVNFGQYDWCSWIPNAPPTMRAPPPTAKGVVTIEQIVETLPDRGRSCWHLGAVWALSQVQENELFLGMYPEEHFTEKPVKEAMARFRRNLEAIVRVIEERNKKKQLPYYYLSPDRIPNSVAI

Acute toxicity in mouse = assay type: in vivo; details: 2 weeks observation
Protocol: The test was carried out with the compounds obtained in Examples 5 and 9. Groups of 5 male ddy mice weighing 26 to 28 g were employed. The test compounds were suspended in a 0.5% CMC aqueous solution and the resulting suspension was administered orally in an amount of 500 for the compound obtained in Example 9, 1000 or 2000 mg/kg body weight. The survivors were kept under observation daily for 2 weeks. From the results shown in Table 6, the LD50 of the compounds obtained in Example 5 and 9 were estimated to be more than 2000 mg/kg. The other compounds of the present invention also had the same toxicity as the above compounds.

## CC(C)c1cccc2n(Cc3ccc(F)cc3)c(=O)c(-c3nnn[nH]3)c-2c1 [Example 9, 1-(4-Fluorobenzyl)-5-iso-propyl-3-(5-tetrazolyl)-1-azaazulane-2-one]
[1]
  inhibition at 10 µg/mL: 99.8%
[2]
  inhibition in vivo at 5 mg/kg: 84.9 ± 2.2%
5-lipoxygenase
  inhibition at 10 µM: -5.4%
Acute toxicity in mouse; 500 mg/kg p.o.
  Mortality: 0/5
Acute toxicity in mouse; 1000 mg/kg p.o.
  Mortality: 0/5
Acute toxicity in mouse; 2000 mg/kg p.o.
  Mortality: 0/5
Acute toxicity in mouse; mouse, in vivo, oral
  LD50 at 336 h: > 2000 mg/kg
